The values that follow come from ChEMBL document CHEMBL4043156, “Functionalization of peptide nucleolipid bioconjugates and their structure anti-cancer activity relationship studies” (Bioorg Med Chem Lett, 2017).

For test [1], the system named is MM1.S. Kind of test: Induction of apoptosis in human MM1S cells at 2.5 uM after 24 hrs by Annexin V-FITC/propidium iodide based FACS analysis. The format is functional, cell-based.
Test [2] deals with MM1.S. Kind of test: Induction of apoptosis in human MM1S cells assessed as increase in necrotic cells at 2.5 uM after 24 hrs by Annexin V-FITC/propidium iodide based FACS analysis. Format: functional, cell-based.

Active and inactive are the calls of the source. The rule behind the calls is not given here.

For the compound `CCCCCCCCNCCO[C@H]1C[C@H](n2cc(C)c(=O)[nH]c2=O)O[C@@H]1C(=O)NCCCC[C@@H](NC(=O)[C@@H](C)NC(=O)[C@@H](CCCCN)NC(=O)[C@@H](C)NC(=O)[C@@H](CC(C)C)NC(=O)[C@@H](CCCCN)NC(=O)[C@@H](C)NC(=O)[C@@H](CC(C)C)NC(=O)[C@@H](CCCCN)NC(=O)CCCCCN)C(=O)O`, the outcome in the test with MM1.S [1] and in the test with MM1.S [2] was inactive.

For the compound `CNCCO[C@H]1C[C@H](n2cc(C)c(=O)[nH]c2=O)O[C@@H]1C(=O)NCCCC[C@@H](NC(=O)[C@@H](C)NC(=O)[C@@H](CCCCN)NC(=O)[C@@H](C)NC(=O)[C@@H](CC(C)C)NC(=O)[C@@H](CCCCN)NC(=O)[C@@H](C)NC(=O)[C@@H](CC(C)C)NC(=O)[C@@H](CCCCN)NC(=O)CCCCCN)C(=O)O`, the result in the test on MM1.S [1] and with MM1.S [2] was inactive.

`Cc1cn([C@H]2C[C@H](OCCNCCCNCCCCNCCCN)[C@@H](C(=O)NCCCC[C@@H](NC(=O)[C@@H](C)NC(=O)[C@@H](CCCCN)NC(=O)[C@@H](C)NC(=O)[C@@H](CC(C)C)NC(=O)[C@@H](CCCCN)NC(=O)[C@@H](C)NC(=O)[C@@H](CC(C)C)NC(=O)[C@@H](CCCCN)NC(=O)CCCCCN)C(=O)O)O2)c(=O)[nH]c1=O`: the outcome with MM1.S [1] and with MM1.S [2] was inactive.

On to `Cc1cn([C@H]2C[C@H](OCCNCCCN)[C@@H](C(=O)NCCCC[C@@H](NC(=O)[C@@H](C)NC(=O)[C@@H](CCCCN)NC(=O)[C@@H](C)NC(=O)[C@@H](CC(C)C)NC(=O)[C@@H](CCCCN)NC(=O)[C@@H](C)NC(=O)[C@@H](CC(C)C)NC(=O)[C@@H](CCCCN)NC(=O)CCCCCN)C(=O)O)O2)c(=O)[nH]c1=O`, for which the result in the test on MM1.S [1] and in the test on MM1.S [2] was inactive.

Consider `Cc1cn([C@H]2C[C@H](OCCNCc3c[nH]cn3)[C@@H](C(=O)NCCCC[C@@H](NC(=O)[C@@H](C)NC(=O)[C@@H](CCCCN)NC(=O)[C@@H](C)NC(=O)[C@@H](CC(C)C)NC(=O)[C@@H](CCCCN)NC(=O)[C@@H](C)NC(=O)[C@@H](CC(C)C)NC(=O)[C@@H](CCCCN)NC(=O)CCCCCN)C(=O)O)O2)c(=O)[nH]c1=O`, for which the outcome with MM1.S [1] and with MM1.S [2] was Active.
